Structure (SMILES) | melting point
CCOc1ccc2ccccc2c1C(=O)N[C@H](Cc1ccc(C(F)(F)F)cc1)[C@H](O)c1ccc(F)cc1 (racemic) [Example 25, 2-(ethyloxy)-N-((1RS,2RS)-2-(4-fluorophenyl)-2-hydroxy-1-((4-(trifluoromethyl)phenyl)methyl)ethyl)-1-naphthalenecarboxamide] | 186 to 187 °C
O=C(N[C@H](Cc1cccc(OC(F)(F)C(F)F)c1)[C@@H](O)c1ccc(Oc2cccnc2)cc1)c1cccc2c1C=CCCC2 (racemic) [Example 261, N-{(1RS,2SR)-2-hydroxy-2-[4-(pyridin-3-yloxy)phenyl]-1-[3-(1,1,2,2-tetrafluoroethoxy)benzyl]ethyl}-6,7-dihydro-5H-benzo[a][7]annulene-1-carboxamide] | 133 to 134 °C
O=C(N[C@H](Cc1ccc(C(F)(F)F)cc1)[C@@H](O)c1ccc(F)cc1)c1cccc(-c2ccccc2)c1 (racemic) [Example 74, N-((1RS,2SR)-2-(4-fluorophenyl)-2-hydroxy-1-((4-(trifluoromethyl)phenyl)methyl)ethyl)[1,1′-biphenyl]-3-carboxamide] | 165 to 166 °C
O=C(N[C@H](Cc1ccc(C(F)(F)F)cc1)[C@@H](O)c1ccc(F)cc1)c1cccc2c([N+](=O)[O-])cccc12 (racemic) [Example 40, N-[(1RS,2SR)-2-(4-fluorophenyl)-2-hydroxy-1-[4-(trifluoromethyl)benzyl]ethyl]-5-nitronaphthalene-1-carboxamide] | 211 to 214 °C
CC1=Cc2c(cccc2C(=O)N[C@H](Cc2cccc(OC(F)(F)C(F)F)c2)[C@@H](O)c2ccc(F)cc2)CCC1 (racemic) [Example 127, N-[(1RS,2SR)-2-(4-fluorophenyl)-2-hydroxy-1-[3-(1,1,2,2-tetrafluoroethoxy)benzyl]ethyl]-8-methyl-6,7-dihydro-5H-benzo[a]cycloheptene-1-carboxamide] | 149 to 150 °C
O=C(N[C@H](Cc1ccc(OC(F)(F)C(F)F)cc1)[C@@H](O)c1ccc(F)cc1)c1ccc(F)c2ccccc12 (racemic) [Example 131, 4-fluoro-N-[(1RS,2SR)-2-(4-fluorophenyl)-2-hydroxy-1-[4-(1,1,2,2-tetrafluoroethoxy)benzyl]ethyl]naphthalene-1-carboxamide] | 192 to 193 °C
CC(C)(C)OC(=O)N[C@H](Cc1ccc(C#N)cc1)[C@@H](O)c1ccc(F)cc1 (racemic) [Example 152, tert-butyl N-[(1RS,2SR)-1-(4-cyanobenzyl)-2-(4-fluorophenyl)-2-hydroxyethyl]carbamate] | 203 to 204 °C
O=C(N[C@H](Cc1cccc(OC(F)(F)C(F)F)c1)[C@@H](O)c1ccc(OCC2CCCCC2)cc1)c1cccc2c1C=CCCC2 (racemic) [Example 246, N-{(1RS,2SR)-2-[4-(cyclohexylmethoxy)phenyl]-2-hydroxy-1-[3-(1,1,2,2-tetrafluoroethoxy)benzyl]ethyl}-6,7-dihydro-5H-benzo[a][7]annulene-1-carboxamide] | 141 to 142 °C
CC(F)(F)c1cccc(C[C@@H](NC(=O)c2cccc3c2C=CCCC3)[C@@H](O)c2ccc(F)cc2)c1 (racemic) [Example 360, N-[(1RS,2SR)-1-[3-(1,1-difluoroethyl)benzyl]-2-(4-fluorophenyl)-2-hydroxyethyl]-6,7-dihydro-5H-benzo[a]cycloheptene-1-carboxamide] | 170 to 171 °C
O=C(O)c1ccc([C@@H](O)[C@H](Cc2cccc(OC(F)(F)C(F)F)c2)NC(=O)c2cccc3c2C=CCCC3)cc1 (racemic) [Example 310, 4-[(1RS,2SR)-2-[(6,7-dihydro-5H-benzo[a]cyclohepten-1-ylcarbonyl)amino]-1-hydroxy-3-[3-(1,1,2,2-tetrafluoroethoxy)phenyl]propyl]benzoic acid] | 210 to 211 °C
